Data taken from PMC7721803, “Development of a penem antibiotic against Mycobacteroides abscessus” (Communications Biology, 2020).
≈ marks a conversion by molar mass, not a printed value. Read-outs that look alike come from different tables or passages of the source.

Legend:
[1] = test system: M. abscessus; assay: MIC by broth dilution method (Middlebrook 7H9); type: cell-based, Mycobacteroides abscessus
[2] = test system: Mycobacterium tuberculosis reference strain H37Rv; assay: MIC by broth dilution method; type: cell-based; settings: 336 h, 37 °C, 14 days
Procedure: MIC of each drug against M. abscessus was determined using the broth dilution method[27] in accordance with CLSI guidelines specific for this organism, except that Middlebrook 7H9 broth was used instead of cation-adjusted Mueller–Hinton broth. Powdered drug stocks were reconstituted in dimethyl sulfoxide and twofold serial dilutions were prepared in Middlebrook 7H9 broth to obtain final drug concentrations ranging from 512 to 0.5 µg/mL in 96-well plates. 10^5 colony forming units (CFU)/mL of M. abscessus from an exponentially growing culture were added to each well. M. abscessus cultured without drug and 7H9 broth alone were included in each plate as positive and negative controls, respectively. […] Growth of M. abscessus or lack thereof was assessed by visual inspection and an MIC for each drug was recorded as the lowest concentration at which M. abscessus growth was not observed. Results are reported as medians determined from three independent biological replicates. […] Middlebrook 7H9 broth was used for this assay and growth or lack thereof of M. tuberculosis was assessed after incubation at 37 °C for 14 days.

[3] = test system: M. abscessus ATCC 19977; type: cell-based, Mycobacteroides abscessus
[4] = Mouse plasma protein binding assay (rapid equilibrium dialysis); type: in vitro ADME; settings: mouse plasma/serum, 4 h
Procedure: The plasma protein binding assay was performed with a Rapid Equilibrium Dialysis (RED) device (Thermo Scientific, Rockford, IL) according to the manufacturer’s directions and as previously described. […] Aliquots were taken at 30 min and 4 h, diluted with phosphate-buffered saline (PBS), and quenched in 75 µL cold acetonitrile/water (9:1) + 0.1% formic acid mixture containing 5 µM internal standard 1,8-diazabicyclo(5.4.0)undec-7-ene (DBU). The resulting mixture was incubated at −80 °C for 30 min and subjected to centrifugation at 20,000 × g for 20 min.

[5] = Stability in mouse plasma; type: in vitro ADME; settings: 5 μM, 37 °C, over 4 h
[6] = PK simulation with one-compartmental model (plasma-free drug, fT>MIC); parameters: species or system BALB/c mice
Procedure: All procedures involving mice were approved by the Animal Care and Use Committee of Johns Hopkins University. T405 was dissolved in PBS. […] Blood was sampled from three mice per group per time point by mandibular vein puncture or cardiac puncture at the following time points: 5, 15, 30, 60, 120, and 240 min post-dose. Plasma was separated in heparin-containing tubes and frozen. […] Concentration–time data were analyzed by standard non-compartmental and compartmental techniques using WinNonlin (version 7.0; Pharsight, Mountain View, CA). […] A plasma free drug fraction of 2% of the total drug concentration was included in the simulations.

C[C@@H](O)C1C(=O)N2C(C(=O)O)=C(SC3CN(C4=NCCS4)C3)SC12 (stereo in doubt) [T405]
strains exhibiting MICs of ≤4 µg/mL ([1]; 20 clinical M. abscessus strains): 17/20 | MIC of T405 with avibactam ([1]; ATCC 19977, avibactam 4 µg/mL): 0.5 µg/mL | MIC50 ([1]; Mycobacteroides abscessus): 2 µg/mL (≈ 5.16 µM) | MIC90 ([1]; Mycobacteroides abscessus): 8 µg/mL (≈ 20.6 µM) | MIC ([1]; Mycobacteroides abscessus, ATCC19977, reference strain ATCC 19977): 2 µg/mL (≈ 5.16 µM) | MIC ([1]; Mycobacteroides abscessus, clinical isolate 1N): 2 µg/mL (≈ 5.16 µM) | MIC ([1]; Mycobacteroides abscessus, clinical isolate 2N): 2 µg/mL (≈ 5.16 µM) | MIC ([1]; Mycobacteroides abscessus, clinical isolate 3N): 2 µg/mL (≈ 5.16 µM) | MIC ([1]; Mycobacteroides abscessus, clinical isolate 4N): 1 µg/mL (≈ 2.58 µM) | MIC ([1]; Mycobacteroides abscessus, clinical isolate 5N): 1 µg/mL (≈ 2.58 µM) | MIC ([1]; Mycobacteroides abscessus, clinical isolate 8N): 4 µg/mL (≈ 10.3 µM) | MIC ([1]; Mycobacteroides abscessus, clinical isolate 11N): 8 µg/mL (≈ 20.6 µM) | MIC ([1]; Mycobacteroides abscessus, clinical isolate 13N): 1 µg/mL (≈ 2.58 µM) | MIC ([1]; Mycobacteroides abscessus, clinical isolate 14N): 8 µg/mL (≈ 20.6 µM) | MIC ([1]; Mycobacteroides abscessus, clinical isolate 202): 2 µg/mL (≈ 5.16 µM) | MIC ([1]; Mycobacteroides abscessus, clinical isolate 203): 2 µg/mL (≈ 5.16 µM) | MIC ([1]; Mycobacteroides abscessus, clinical isolate 204): 8 µg/mL (≈ 20.6 µM) | MIC ([1]; Mycobacteroides abscessus, clinical isolate 214): 1 µg/mL (≈ 2.58 µM) | MIC ([1]; Mycobacteroides abscessus, clinical isolate 215): 2 µg/mL (≈ 5.16 µM) | MIC ([1]; Mycobacteroides abscessus, clinical isolate JH1801): 1 µg/mL (≈ 2.58 µM) | MIC ([1]; Mycobacteroides abscessus, clinical isolate JH1802): 4 µg/mL (≈ 10.3 µM) | MIC ([1]; Mycobacteroides abscessus, clinical isolate JHH2): 4 µg/mL (≈ 10.3 µM) | MIC ([1]; Mycobacteroides abscessus, clinical isolate JHH4): 2 µg/mL (≈ 5.16 µM) | MIC ([1]; Mycobacteroides abscessus, clinical isolate JHH9): 4 µg/mL (≈ 10.3 µM) | MIC ([1]; Mycobacteroides abscessus, clinical isolate JHHKB): 2 µg/mL (≈ 5.16 µM) | Reduction of T405 MIC by addition of avibactam ([1]; avibactam 4 µg/mL, ATCC 19977 and 10 clinical isolates): two-fold (7 strains) or fourfold (2 strains) | MIC [2]: 0.5 to 1 µg/mL (≈ 1.29 to 2.58 µM) | Reduction in the frequency of resistance on addition of avibactam ([3]; T405 2 µg/mL with vs without avibactam 256 µg/mL): ~3 log | Resistance frequency ([3]; T405 at MIC (2 µg/mL) combined with avibactam at its MIC of 256 µg/mL): 5.8 × 10^−9 | Resistance frequency ([3]; drug alone at its individual MIC (T405 2 µg/mL, imipenem 8 µg/mL)): 2.0 × 10^−6 | Frequency of resistance higher than that for imipenem ([3]; each at its MIC): approximately 1 log | blood plasma binding (bound) [4]: 98% | stability in mouse plasma [5]: no measurable degradation | simulated plasma-free T405 concentration ([6]; 25mg/kg alone, 0.083 h): 3120 ng/mL | simulated plasma-free T405 concentration ([6]; 25mg/kg alone, 0.25 h): 3273.33 ng/mL | simulated plasma-free T405 concentration ([6]; 25mg/kg alone, 0.5 h): 2446 ng/mL | simulated plasma-free T405 concentration ([6]; 25mg/kg alone, 1 h): 1212.67 ng/mL | simulated plasma-free T405 concentration ([6]; 25mg/kg alone, 2 h): 526 ng/mL | simulated plasma-free T405 concentration ([6]; 25mg/kg alone, 4 h): 131.67 ng/mL | simulated plasma-free T405 concentration ([6]; 25mg/kg alone, 6 h): 29.76 ng/mL | simulated plasma-free T405 concentration ([6]; 25mg/kg alone, 8 h): 6.87 ng/mL | simulated plasma-free T405 concentration ([6]; 25mg/kg alone, 10 h): 1.58 ng/mL | simulated plasma-free T405 concentration ([6]; 25mg/kg alone, 12 h): 0.37 ng/mL | simulated plasma-free T405 concentration ([6]; 25mg/kg alone, 16 h): 0.02 ng/mL | simulated plasma-free T405 concentration ([6]; 25mg/kg alone, 20 h): 0 ng/mL | simulated plasma-free T405 concentration ([6]; 25mg/kg alone, 24 h): 0 ng/mL | simulated plasma-free T405 concentration ([6]; 150mg/kg alone, 0.083 h): 18720 ng/mL | simulated plasma-free T405 concentration ([6]; 150mg/kg alone, 0.25 h): 19640 ng/mL | simulated plasma-free T405 concentration ([6]; 150mg/kg alone, 0.5 h): 14676 ng/mL | simulated plasma-free T405 concentration ([6]; 150mg/kg alone, 1 h): 7276 ng/mL | simulated plasma-free T405 concentration ([6]; 150mg/kg alone, 2 h): 3156 ng/mL | simulated plasma-free T405 concentration ([6]; 150mg/kg alone, 4 h): 790 ng/mL | simulated plasma-free T405 concentration ([6]; 150mg/kg alone, 6 h): 178.58 ng/mL | simulated plasma-free T405 concentration ([6]; 150mg/kg alone, 8 h): 41.2 ng/mL | simulated plasma-free T405 concentration ([6]; 150mg/kg alone, 10 h): 9.51 ng/mL | simulated plasma-free T405 concentration ([6]; 150mg/kg alone, 12 h): 2.19 ng/mL | simulated plasma-free T405 concentration ([6]; 150mg/kg alone, 16 h): 0.12 ng/mL | simulated plasma-free T405 concentration ([6]; 150mg/kg alone, 20 h): 0.01 ng/mL | simulated plasma-free T405 concentration ([6]; 150mg/kg alone, 24 h): 0 ng/mL | simulated plasma-free T405 concentration ([6]; 300mg/kg alone, 0.083 h): 37440 ng/mL | simulated plasma-free T405 concentration ([6]; 300mg/kg alone, 0.25 h): 39280 ng/mL | simulated plasma-free T405 concentration ([6]; 300mg/kg alone, 0.5 h): 29352 ng/mL | simulated plasma-free T405 concentration ([6]; 300mg/kg alone, 1 h): 14552 ng/mL | simulated plasma-free T405 concentration ([6]; 300mg/kg alone, 2 h): 6312 ng/mL | simulated plasma-free T405 concentration ([6]; 300mg/kg alone, 4 h): 1580 ng/mL | simulated plasma-free T405 concentration ([6]; 300mg/kg alone, 6 h): 357.16 ng/mL | simulated plasma-free T405 concentration ([6]; 300mg/kg alone, 8 h): 82.4 ng/mL | simulated plasma-free T405 concentration ([6]; 300mg/kg alone, 10 h): 19.01 ng/mL | simulated plasma-free T405 concentration ([6]; 300mg/kg alone, 12 h): 4.39 ng/mL | simulated plasma-free T405 concentration ([6]; 300mg/kg alone, 16 h): 0.23 ng/mL | simulated plasma-free T405 concentration ([6]; 300mg/kg alone, 20 h): 0.01 ng/mL | simulated plasma-free T405 concentration ([6]; 300mg/kg alone, 24 h): 0 ng/mL | predicted free drug time above MIC (fT>MIC) ([6]; 300 mg/kg twice daily, in the presence of avibactam): above 40% | simulated plasma-free T405 concentration ([6]; 450mg/kg alone, 0.083 h): 56160 ng/mL | simulated plasma-free T405 concentration ([6]; 450mg/kg alone, 0.25 h): 58920 ng/mL | simulated plasma-free T405 concentration ([6]; 450mg/kg alone, 0.5 h): 44028 ng/mL | simulated plasma-free T405 concentration ([6]; 450mg/kg alone, 1 h): 21828 ng/mL | simulated plasma-free T405 concentration ([6]; 450mg/kg alone, 2 h): 9468 ng/mL | simulated plasma-free T405 concentration ([6]; 450mg/kg alone, 4 h): 2370 ng/mL | simulated plasma-free T405 concentration ([6]; 450mg/kg alone, 6 h): 535.74 ng/mL | simulated plasma-free T405 concentration ([6]; 450mg/kg alone, 8 h): 123.6 ng/mL | simulated plasma-free T405 concentration ([6]; 450mg/kg alone, 10 h): 28.52 ng/mL | simulated plasma-free T405 concentration ([6]; 450mg/kg alone, 12 h): 6.58 ng/mL | simulated plasma-free T405 concentration ([6]; 450mg/kg alone, 16 h): 0.35 ng/mL | simulated plasma-free T405 concentration ([6]; 450mg/kg alone, 20 h): 0.02 ng/mL | simulated plasma-free T405 concentration ([6]; 450mg/kg alone, 24 h): 0 ng/mL | predicted free drug time above MIC (fT>MIC) ([6]; 450 mg/kg twice daily with probenecid, in absence of avibactam): 54% | predicted free drug time above MIC (fT>MIC) ([6]; 450 mg/kg twice daily with probenecid, in presence of avibactam): 72% | predicted free drug time above MIC (fT>MIC) ([6]; 450 mg/kg twice daily, free fraction 2%, MIC 0.5 µg/mL (ATCC 19977 in presence of avibactam)): 48% | predicted free drug time above MIC (fT>MIC) ([6]; 450 mg/kg twice daily, free fraction 2%, MIC 2 µg/mL (absence of avibactam)): 35% | simulated plasma-free T405 concentration ([6]; 450mg/kg+Prob (with probenecid), 0.083 h): 48480 ng/mL | simulated plasma-free T405 concentration ([6]; 450mg/kg+Prob (with probenecid), 0.25 h): 52560 ng/mL | simulated plasma-free T405 concentration ([6]; 450mg/kg+Prob (with probenecid), 0.5 h): 44640 ng/mL | simulated plasma-free T405 concentration ([6]; 450mg/kg+Prob (with probenecid), 1 h): 29664 ng/mL | simulated plasma-free T405 concentration ([6]; 450mg/kg+Prob (with probenecid), 2 h): 16020 ng/mL | simulated plasma-free T405 concentration ([6]; 450mg/kg+Prob (with probenecid), 4 h): 6636 ng/mL | simulated plasma-free T405 concentration ([6]; 450mg/kg+Prob (with probenecid), 6 h): 2425.1 ng/mL | simulated plasma-free T405 concentration ([6]; 450mg/kg+Prob (with probenecid), 8 h): 908.73 ng/mL | simulated plasma-free T405 concentration ([6]; 450mg/kg+Prob (with probenecid), 10 h): 340.52 ng/mL | simulated plasma-free T405 concentration ([6]; 450mg/kg+Prob (with probenecid), 12 h): 127.6 ng/mL | simulated plasma-free T405 concentration ([6]; 450mg/kg+Prob (with probenecid), 16 h): 17.92 ng/mL | simulated plasma-free T405 concentration ([6]; 450mg/kg+Prob (with probenecid), 20 h): 2.52 ng/mL | simulated plasma-free T405 concentration ([6]; 450mg/kg+Prob (with probenecid), 24 h): 0.35 ng/mL
